# Results published in patent publication US20260083722A1, “BIFUNCTIONAL DEGRADERS COMPRISING ELECTROPHILIC PROTACS THAT ENGAGE DCAF1 AND PHARMACEUTICAL COMPOSITIONS COMPRISING THE SAME” (THE SCRIPPS RESEARCH INSTITUTE, priority 2022, published 2026).
# Target: T1, HA-FKBP12 (Homo sapiens, UniProt P62942)
# T1 construct: expressed in transfected cells; host or cells: HEK293T
# Test: HA-FKBP12 abundance by Western blotting in transfected HEK293T cells
# Type: cell-based
# Conditions: for time after treatment until evidence of HA-FKBP12 degradation: 2 μM each, FLAG-DCAF1-transfected cells; for lowest concentration with evidence of FKBP12 degradation: HEK293T co-expressing HA-FKBP12 and FLAG-DCAF1; for degradation of FKBP12: cells expressing DCAF1-C1113A mutant; for hook effect in HA-FKBP12 degradation: emerging at 5 μM
# Text: (A) Left, western blots showing concentration-dependent effects of YT47R (upper) and YT41R (lower) on FKBP12 abundance in HEK293T cells expressing HA-FBKP12 with or without co-expression of FLAG-DCAF1. Right, quantification of HA-FKBP12 abundance in the indicated experimental groups. (B) Left, western blots showing effects of YT47R versus YT47S (upper) and YT41R versus YT41S (lower) on FKBP12 abundance in HEK293T cells co-expressing HA-FBKP12 and FLAG-DCAF1. Right, quantification of HA-FKBP12 abundance in the indicated experimental groups. (C) Western blots showing effects of YT47R (left blots) and YT41R (right blots) on FKBP12 abundance in HEK293T cells co-expressing HA-FBKP12 and either FLAG-DCAF1-WT or FLAG-DCAF1-C1113A mutant. Quantification of HA-FKBP12 abundance in the indicated experimental groups is shown in the adjacent bar graphs. For (A-C), FKBP12 abundance was determined at 24 h post-treatment with compounds, and data are mean values±SEM for three independent experiments. Statistical significance was calculated with unpaired two-tailed Student's t-tests comparing YT41R/YT47R- and DMSO-treated cells. ***P<0.001, ****P<0.0001.
# (A) Left, western blots showing effects of proteasome (MG132) and Neddylation (MLN4924) inhibitors (1 h pre-treatment) on YT47R- and YT41R-dependent degradation of FKBP12 in HEK293T cells co-expressing HA-FBKP12 and FLAG-DCAF1. FKBP12 abundance was determined at 24 h post-treatment with YT47R or YT41R. Right, quantification of HA-FKBP12 abundance in the indicated experimental groups. (B) Left, western blots showing effects of the FKBP12 ligand SLF (20 μM) or DCAF1 ligand MY-11B (1 h pre-treatment with 20 μM SLF or 5 μM MY-11B) on YT47R- and YT41R-dependent degradation of FKBP12 in HEK293T cells co-expressing HA-FBKP12 and FLAG-DCAF1. FKBP12 abundance was determined at 24 h post-treatment with YT47R or YT41R. Right, quantification of HA-FKBP12 abundance in the indicated experimental groups. (C) Left, western blots showing effects of MY-11A or MY-11B (5 μM, 1 h pre-treatment) on YT47R- and YT41R-dependent degradation of FKBP12 in HEK293T cells co-expressing HA-FBKP12 and FLAG-DCAF1. FKBP12 abundance was determined at 24 h post-treatment with YT47R or YT41R. Right, quantification of HA-FKBP12 abundance in the indicated experimental groups. For (A-C), data are mean values±SEM for three-five independent experiments. Statistical significance was calculated with unpaired two-tailed Student's t-tests comparing YT41R/YT47R- and DMSO-treated cells. ****P<0.0001.
# Figure S3. Concentration-dependent degradation of FKBP12 by DCAF1-directed electrophilic PROTACs. Top, western blots showing concentration-dependent effects of YT47R and YT41R on FKBP12 abundance in HEK293T cells co-expressing HA-FBKP12 and FLAG-DCAF1. Data are mean values±SEM for four independent experiments. Statistical significance was calculated with unpaired two-tailed Student's t-tests comparing YT41R/YT47R- and DMSO-treated cells. *P<0.1, **P<0.01, ***P<0.001, ****P<0.0001.
# Figure S4. Time-dependent degradation of FKBP12 by DCAF1-directed electrophilic PROTACs. Top, western blots showing time-dependent effects of YT47R and YT41R (2 μM each) on FKBP12 abundance in HEK293T cells co-expressing HA-FBKP12 and FLAG-DCAF1. Data are mean values±SEM for four independent experiments. Statistical significance was calculated with unpaired two-tailed Student's t-tests comparing YT41R/YT47R- and DMSO-treated cells. ****P<0.0001.
# We next treated HEK293T cells co-transfected with FLAG epitope-tagged full length DCAF1 (a.a.'s 1-1507) and HA (hemagglutinin) epitope-tagged FKBP12 with a concentration range of YT41R or YT47R and, after 24 h, measured HA-FKBP12 abundance by Western blotting.
# [1] = HEK293T cells transfected only with HA-FKBP12, 24 h
# [2] = HEK293T co-transfected with FLAG-DCAF1 and HA-FKBP12, 24 h
# T1 sequence (P62942 whole entry): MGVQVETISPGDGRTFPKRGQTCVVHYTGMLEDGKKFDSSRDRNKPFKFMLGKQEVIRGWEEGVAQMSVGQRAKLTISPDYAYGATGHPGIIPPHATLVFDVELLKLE
SMILES,time after treatment until evidence of HA-FKBP12 degradation,degradation of HA-FKBP12 [1],lowest concentration with evidence of FKBP12 degradation,degradation of HA-FKBP12 [2],degradation of FKBP12,hook effect in HA-FKBP12 degradation
C=CC(=O)C1C[C@H](c2ccc(C(=O)NCCOCCOCCNC(=O)COc3cccc([C@@H](CCc4ccc(OC)c(OC)c4)OC(=O)[C@@H]4CCCCN4C(=O)C(=O)C(C)(C)CC)c3)cc2)[C@@H]1C(=O)Nc1cccc2cccnc12 (stereo partly drawn) [YT41R],~24 h,not,0.25 µM,Robust concentration-dependent degradation,did not promote the degradation,possible modest hook effect
C=CC(=O)N1C[C@H](c2ccc(C(=O)NCCOCCOCCOCCNC(=O)COc3cccc([C@@H](CCc4ccc(OC)c(OC)c4)OC(=O)[C@@H]4CCCCN4C(=O)C(=O)C(C)(C)CC)c3)cc2)[C@@H]1C(=O)Nc1cccc2cccnc12 [YT47R],~24 h,not,0.25 µM,Robust concentration-dependent degradation,did not promote the degradation,possible modest hook effect
